The record followed here is PubChem BioAssay AID190 (DTP/NCI, 2004).

The assay concerns AKR/Lw mice, AKR lymphoma ip, median survival T/C. Nature of the assay: NCI In Vivo Anticancer Drug Screen. Data for tumor model Lymphoma AKR (Transplanted) (intraperitoneal) in AKR/Lw mice. The settings on record: endpoint: median survival time, higher = longer survival. The procedure:
The antitumor activity of compounds was measured in mice bearing transplantable tumors. Survival or tumor size were measured and the results are expressed as the measurement made in the treated group (T) divided by the measurement made in the vehicle treated control group (C). The tumor model used in this assay is Lymphoma AKR (Transplanted) (intraperitoneal) in AKR/Lw mice

The mark [1] stands for this setting: dose: 50.0 mg/kg/injection, schedule: Q01DX001 (ip), vehicle: saline.
Where [2] appears, read: dose: 4.0 mg/kg/injection, schedule: Q01DX009 (ip), vehicle: saline.
Setting [3] is: dose: 25.0 mg/kg/injection, schedule: Q04DX003 (ip), vehicle: saline.
Setting [4] is: dose: 100.0 mg/kg/injection, schedule: Q01DX001 (ip), vehicle: saline.
Setting [5] is: dose: 200.0 mg/kg/injection, schedule: Q01DX001 (ip), vehicle: saline.
The mark [6] stands for this setting: dose: 400.0 mg/kg/injection, schedule: Q01DX001 (ip), vehicle: saline.
Where [7] appears, read: dose: 100.0 mg/kg/injection, schedule: Q01DX001 (ip), vehicle: Klucel (hydroxypropylcellulose) (HPC).
Where [8] appears, read: dose: 200.0 mg/kg/injection, schedule: Q01DX001 (ip), vehicle: Klucel (hydroxypropylcellulose) (HPC).
[9] abbreviates: dose: 400.0 mg/kg/injection, schedule: Q01DX001 (ip), vehicle: Klucel (hydroxypropylcellulose) (HPC).
The mark [10] stands for this setting: dose: 100.0 mg/kg/injection, schedule: Q04DX003 (ip), vehicle: Klucel (hydroxypropylcellulose) (HPC).
[11] abbreviates: dose: 200.0 mg/kg/injection, schedule: Q04DX003 (ip), vehicle: Klucel (hydroxypropylcellulose) (HPC).
The mark [12] stands for this setting: dose: 400.0 mg/kg/injection, schedule: Q04DX003 (ip), vehicle: Klucel (hydroxypropylcellulose) (HPC).

Values joined by “and” are separate entries in the source; they are usually repeats but may differ in a detail not shown here. Identical values can stand only once. Toxic doses and inconclusive results are not listed.

As to `C[N+]1(C)Cc2ccccc2-c2ccccc2C1`, under setting [1], the T/C is 94 % of control.
`CN(Cc1cnc2nc(N)nc(N)c2n1)c1ccc(C(=O)N[C@@H](CCC(=O)O)C(=O)O)cc1`: the T/C was 100 % of control (dose: 0.15 mg/kg/injection, schedule: Q04DX003 (ip), vehicle: saline); 106 % of control (dose: 0.25 mg/kg/injection, schedule: Q01DX001 (ip), vehicle: saline); 112 % of control (dose: 0.25 mg/kg/injection, schedule: Q01DX009 (ip), vehicle: saline); 114 % of control and 116 % of control (dose: 0.25 mg/kg/injection, schedule: Q01DX015 (ip), vehicle: saline); 111 % of control (dose: 0.3 mg/kg/injection, schedule: Q04DX003 (ip), vehicle: saline); 109 % of control and 117 % of control (dose: 0.5 mg/kg/injection, schedule: Q01DX001 (ip), vehicle: saline). Also, the T/C by setting is: (dose: 0.5 mg/kg/injection, schedule: Q04DX008 (ip), vehicle: saline) 116 % of control; (dose: 0.6 mg/kg/injection, schedule: Q04DX003 (ip), vehicle: saline) 98 % of control; (dose: 0.75 mg/kg/injection, schedule: Q01DX009 (ip), vehicle: saline) 112 % of control; (dose: 0.75 mg/kg/injection, schedule: Q04DX003 (ip), vehicle: saline) 87 % of control and 93 % of control and 111 % of control; (dose: 1.0 mg/kg/injection, schedule: Q01DX001 (ip), vehicle: saline) 109 % of control and 115 % of control; (dose: 1.2 mg/kg/injection, schedule: Q01DX009 (ip), vehicle: saline) 91 % of control. In addition, the T/C (dose: 1.5 mg/kg/injection, schedule: Q01DX001 (ip), vehicle: saline) was 89 % of control and 102 % of control; the T/C (dose: 1.5 mg/kg/injection, schedule: Q01DX015 (ip), vehicle: saline) is 197 % of control; the T/C (dose: 2.0 mg/kg/injection, schedule: Q01DX001 (ip), vehicle: saline) is 106 % of control and 115 % of control; the T/C (dose: 2.0 mg/kg/injection, schedule: Q04DX003 (ip), vehicle: saline) is 95 % of control; the T/C (dose: 2.5 mg/kg/injection, schedule: Q01DX009 (ip), vehicle: saline) was 87 % of control and 91 % of control; the T/C (dose: 3.0 mg/kg/injection, schedule: Q01DX001 (ip), vehicle: saline) was 100 % of control and 114 % of control and 116 % of control. Further, the T/C was 116 % of control (dose: 4.0 mg/kg/injection, schedule: Q01DX001 (ip), vehicle: saline); 94 % of control under setting [2]; 109 % of control (dose: 4.0 mg/kg/injection, schedule: Q04DX003 (ip), vehicle: saline); 113 % of control (dose: 4.0 mg/kg/injection, schedule: Q04DX008 (ip), vehicle: saline); 114 % of control (dose: 5.0 mg/kg/injection, schedule: Q01DX001 (ip), vehicle: saline); 88 % of control (dose: 5.0 mg/kg/injection, schedule: Q01DX009 (ip), vehicle: saline). The T/C was 102 % of control and 104 % of control (dose: 10.0 mg/kg/injection, schedule: Q01DX001 (ip), vehicle: saline); 123 % of control (dose: 11.0 mg/kg/injection, schedule: Q04DX008 (ip), vehicle: saline); 107 % of control and 111 % of control (dose: 12.0 mg/kg/injection, schedule: Q01DX001 (ip), vehicle: saline); 93 % of control and 100 % of control (dose: 12.0 mg/kg/injection, schedule: Q04DX003 (ip), vehicle: saline); 93 % of control (dose: 16.0 mg/kg/injection, schedule: Q04DX004 (ip), vehicle: saline); 102 % of control (dose: 20.0 mg/kg/injection, schedule: Q01DX001 (ip), vehicle: saline). Besides, the T/C (dose: 24.0 mg/kg/injection, schedule: Q04DX003 (ip), vehicle: saline) was 94 % of control; the T/C (dose: 24.0 mg/kg/injection, schedule: Q04DX004 (ip), vehicle: saline) was 115 % of control; the T/C (dose: 40.0 mg/kg/injection, schedule: Q01DX001 (ip), vehicle: saline) was 108 % of control.
With `COC(=O)C1CC2C(Cl)=C(Cl)C1(Cl)C2(Cl)Cl` (configuration not stated), the T/C by setting is: under setting [3], 108 % of control; (dose: 50.0 mg/kg/injection, schedule: Q04DX003 (ip), vehicle: saline) 100 % of control; under setting [4], 96 % of control; (dose: 100.0 mg/kg/injection, schedule: Q04DX003 (ip), vehicle: saline) 95 % of control; under setting [5], 105 % of control; under setting [6], 103 % of control.
Regarding `Brc1cc(Br)c(-c2c(Br)cc(Br)cc2Br)c(Br)c1`, the T/C reads like this: under setting [7], 103 % of control; under setting [8], 100 % of control; under setting [9], 96 % of control.
On to `C1CC[N+]2=C(C1)OCCC2`, for which the T/C was 94 % of control under setting [1], 91 % of control under setting [4] and 97 % of control under setting [5].
`CCOC(=O)N(CC)c1ccccc1`: the T/C under setting [7] was 109 % of control; the T/C under setting [10] is 113 % of control; the T/C under setting [8] was 111 % of control; the T/C under setting [11] was 94 % of control; the T/C under setting [9] was 100 % of control; the T/C under setting [12] is 98 % of control.
As to `CN(CCOc1ccccc1O)CCOc1ccccc1O`, the T/C is 105 % of control under setting [7]; 100 % of control under setting [10]; 107 % of control under setting [8]; 92 % of control under setting [11]; 105 % of control under setting [9].
For `ClC1=C(Cl)C2(Cl)C(COc3ccc(Cl)cc3)CC1(Cl)C2(Cl)Cl` (configuration not stated), the T/C is, setting by setting: under setting [4], 94 % of control; under setting [5], 88 % of control; under setting [6], 91 % of control.
Turning to `COC(=O)C1(C)CCC(c2ccc(C)cc2)=C(CC(=O)O)C1` (configuration not stated), the T/C runs as follows: under setting [4], 97 % of control; under setting [5], 94 % of control; under setting [6], 94 % of control.
Consider `C1CC2C(CCCC23OCCO3)C2(C1)OCCO2` (configuration not stated), for which the T/C under setting [7] is 103 % of control; the T/C under setting [4] was 106 % of control; the T/C under setting [8] is 96 % of control; the T/C under setting [5] was 106 % of control; the T/C under setting [9] is 93 % of control; the T/C under setting [6] was 113 % of control.
As for `Nc1nc(N)nc(N)n1`, the T/C reads like this: under setting [10], 97 % of control; under setting [11], 108 % of control; under setting [12], 86 % of control; (dose: 800.0 mg/kg/injection, schedule: Q04DX003 (ip), vehicle: Klucel (hydroxypropylcellulose) (HPC)) 105 % of control.
Turning to `CS(=O)(=O)OCCCNCCCOS(C)(=O)=O`, the T/C was 94 % of control (dose: 1.6 mg/kg/injection, schedule: Q01DX009 (ip), vehicle: saline); 96 % of control (dose: 1.9 mg/kg/injection, schedule: Q01DX009 (ip), vehicle: saline); 107 % of control (dose: 2.0 mg/kg/injection, schedule: Q01DX009 (ip), vehicle: saline); 88 % of control and 100 % of control and 115 % of control (dose: 3.1 mg/kg/injection, schedule: Q01DX009 (ip), vehicle: saline); 106 % of control (dose: 3.8 mg/kg/injection, schedule: Q01DX009 (ip), vehicle: saline); 103 % of control under setting [2]. Besides, the T/C by setting is: (dose: 6.2 mg/kg/injection, schedule: Q01DX009 (ip), vehicle: saline) 102 % of control; (dose: 6.3 mg/kg/injection, schedule: Q01DX009 (ip), vehicle: saline) 97 % of control; (dose: 8.0 mg/kg/injection, schedule: Q01DX009 (ip), vehicle: saline) 100 % of control; (dose: 12.5 mg/kg/injection, schedule: Q01DX001 (ip), vehicle: saline) 124 % of control; (dose: 12.5 mg/kg/injection, schedule: Q04DX003 (ip), vehicle: saline) 102 % of control and 106 % of control; (dose: 25.0 mg/kg/injection, schedule: Q01DX001 (ip), vehicle: saline) 110 % of control. The T/C was 106 % of control and 112 % of control under setting [3]; 113 % of control (dose: 27.0 mg/kg/injection, schedule: Q04DX003 (ip), vehicle: water); 112 % of control (dose: 45.0 mg/kg/injection, schedule: Q01DX001 (ip), vehicle: saline); 100 % of control and 123 % of control (dose: 60.0 mg/kg/injection, schedule: Q01DX009 (ip), vehicle: saline); 108 % of control (dose: 75.0 mg/kg/injection, schedule: Q01DX001 (ip), vehicle: saline); 192 % of control (dose: 108.0 mg/kg/injection, schedule: Q04DX003 (ip), vehicle: water).
For the compound `CC1NC1(c1ccccc1)[n+]1ccccc1` (configuration not stated), under setting [5], the T/C is 100 % of control.
